Like-named read-outs stand apart in the source and are kept apart here.
Key:
Format in all cases: cell-based, human
SMN2 mRNA = test: Splicing RT-qPCR gene panel, SMN2 canonical junction (CJ) mRNA; settings: Homo sapiens, Tables 4A/4B, read-out: SMN2 (IC50, decrease in CJ mRNA, gene panel)
Procedure, shortened: (§1)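 Canonical-junction mRNA levels were quantified by RT-qPCR in lysates, using ΔΔCt against a housekeeping gene (GAPDH, GUSB or PPIA) and DMSO wells, expressed as percentage response. Cells (A673 or K562) had been exposed for 24 h at 37° C. to 11 three-fold compound concentrations up to 10 uM, DMSO ≤0.25%.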

HTT mRNA [1] = test: Splicing RT-qPCR assay, HTT canonical (CJ) and alternative (AJ) junction mRNA; settings: Homo sapiens
Procedure, shortened: (§2)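 A673 or K562 cells were treated 24 h at 37 °C with an 11-point 3-fold compound dilution series (top 10 uM, DMSO ≤0.25%). Lysates went to one-step RT-qPCR measuring canonical (CJ) and alternative-exon (AJ) junction transcripts, normalized to GAPDH, GUSB or PPIA.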

MYB mRNA = test: Splicing RT-qPCR assay, MYB canonical (CJ) and alternative (AJ) junction mRNA; settings: Homo sapiens
Procedure, shortened: as §2

HTT mRNA [2] = test: Splicing RT-qPCR gene panel, HTT canonical junction (CJ) mRNA; settings: Homo sapiens, Tables 4A/4B, read-out: HTT (IC50, decrease in CJ mRNA, gene panel)
Procedure, shortened: as §1

Target C mRNA = test: Splicing RT-qPCR gene panel, Target C canonical junction (CJ) mRNA; settings: Homo sapiens, Tables 4A/4B, read-out: Target C (IC50, decrease in CJ mRNA, gene panel)
Procedure, shortened: as §1

[3] = 24 h, A673 or K562 cells, 24 hours compound treatment, read-out: HTT CJ (IC50, decrease in canonical junction mRNA)
[4] = A673 or K562 cells, 24 hours compound treatment, read-out: HTT AJ (AC50, increase in alternative junction mRNA)
[5] = 24 h, A673 or K562 cells, 24 hours compound treatment, RT-qPCR, read-out: MYB AJ (AC50, increase in alternative junction mRNA)
[6] = 24 h, A673 or K562 cells, 24 hours compound treatment, RT-qPCR, read-out: MYB CJ (IC50, decrease in canonical junction mRNA)
[7] = Tables 4A/4B, canonical junction qPCR panel, read-out: MYB (IC50, decrease in CJ mRNA, gene panel)
[8] = Table 3B, alternative junction mRNA, read-out: HTT AJ (AC50, increase in AJ mRNA)
[9] = Table 3B, canonical junction mRNA, read-out: HTT CJ (IC50, decrease in CJ mRNA)
[10] = Table 3B, canonical junction mRNA, RT-qPCR, read-out: MYB CJ (IC50, decrease in CJ mRNA)
[11] = Table 3B, alternative junction mRNA, RT-qPCR, read-out: MYB AJ (AC50, increase in AJ mRNA)

Compound: Cc1nc2c(F)cc(NC(=O)c3ccc(N4CCNCC4)c4cn(C)nc34)cn2n1 [Compound 462, N-{8-fluoro-2-methyl-[1,2,4]triazolo[1,5-a]pyridin-6-yl}-2-methyl-4-(piperazin-1-yl) indazole-7-carboxamide]
- IC50 (SMN2 mRNA): < 0.1 µM
- IC50 (HTT mRNA [1]; [3]): 0.1 to 1 µM
- AC50 (HTT mRNA [1]; [4]): 0.1 to 1 µM
- AC50 (MYB mRNA; [5]): < 0.1 µM
- IC50 (MYB mRNA; [6]): < 0.1 µM
- IC50 (MYB mRNA; [7]): < 0.1 µM
- IC50 (HTT mRNA [2]): 0.1 to 1 µM
- IC50 (Target C mRNA): > 10 µM

Compound: Cc1cn2cc(NC(=O)c3ccc(N4CCC(N)(C(F)(F)F)CC4)c4cn(C)nc34)cc(F)c2n1 [Compound 370, 4-[4-amino-4-(trifluoromethyl)piperidin-1-yl]-N-{8-fluoro-2-methylimidazo[1,2-a]pyridin-6-yl}-2-methylindazole-7-carboxamide]
- IC50 (SMN2 mRNA): 0.1 to 1 µM
- IC50 (HTT mRNA [1]; [3]): > 10 µM
- AC50 (HTT mRNA [1]; [4]): > 10 µM
- AC50 (MYB mRNA; [5]): 1 to 10 µM
- IC50 (MYB mRNA; [6]): 0.1 to 1 µM
- IC50 (MYB mRNA; [7]): 0.1 to 1 µM
- IC50 (HTT mRNA [2]): > 10 µM
- IC50 (Target C mRNA): > 10 µM

Compound: COCCn1cc2c(N3C[C@@H](C)N[C@@H](C)C3)ccc(C(=O)Nc3cc(F)c4nc(C)cn4c3)c2n1 [Compound 306, 4-[(3R,5S)-3,5-dimethylpiperazin-1-yl]-N-{8-fluoro-2-methylimidazo[1,2-a]pyridin-6-yl}-2-(2-methoxyethyl) indazole-7-carboxamide]
- IC50 (SMN2 mRNA): < 0.1 µM
- IC50 (HTT mRNA [1]; [3]): 1 to 10 µM
- AC50 (HTT mRNA [1]; [4]): 1 to 10 µM
- AC50 (MYB mRNA; [5]): < 0.1 µM
- IC50 (MYB mRNA; [6]): 0.1 to 1 µM
- IC50 (MYB mRNA; [7]): 0.1 to 1 µM
- IC50 (HTT mRNA [2]): 1 to 10 µM
- IC50 (Target C mRNA): > 10 µM

Compound: Cc1cn2cc(NC(=O)c3ccc(N4CC[C@H](N(C)C)C4)c4cn(C)nc34)cc(F)c2n1 (single isomer, unassigned) [Compound 351, 4-[3-(dimethylamino)pyrrolidin-1-yl]-N-{8-fluoro-2-methylimidazo[1,2-a]pyridin-6-yl}-2-methylindazole-7-carboxamide]
- IC50 (SMN2 mRNA): < 0.1 µM
- IC50 (HTT mRNA [1]; [3]): 1 to 10 µM
- AC50 (HTT mRNA [1]; [4]): 1 to 10 µM
- AC50 (MYB mRNA; [5]): < 0.1 µM
- IC50 (MYB mRNA; [6]): < 0.1 µM
- IC50 (MYB mRNA; [7]): < 0.1 µM
- IC50 (HTT mRNA [2]): 1 to 10 µM
- IC50 (Target C mRNA): > 10 µM

Compound: CN[C@@H]1CCN(c2ccc(C(=O)Nc3cn4cc(C)nc4c(OC)n3)c3nn(CCOC)cc23)C1 [Compound 431, (R)—N-(8-methoxy-2-methylimidazo[1,2-a]pyrazin-6-yl)-2-(2-methoxyethyl)-4-(3-(methylamino)pyrrolidin-1-yl)-2H-indazole-7-carboxamide]
- IC50 (SMN2 mRNA): < 0.1 µM
- IC50 (HTT mRNA [1]; [3]): > 10 µM
- AC50 (HTT mRNA [1]; [4]): > 10 µM
- AC50 (MYB mRNA; [5]): 0.1 to 1 µM
- IC50 (MYB mRNA; [6]): 0.1 to 1 µM
- IC50 (MYB mRNA; [7]): < 0.1 µM
- IC50 (HTT mRNA [2]): 1 to 10 µM
- IC50 (Target C mRNA): 1 to 10 µM

Compound: Cc1cn2cc(NC(=O)c3ccc(N4CCNCC4)c4cn(C5CC5)nc34)cc(F)c2n1 [Compound 294, 2-cyclopropyl-N-{8-fluoro-2-methylimidazo[1,2-a]pyridin-6-yl}-4-(piperazin-1-yl) indazole-7-carboxamide]
- IC50 (SMN2 mRNA): < 0.1 µM
- IC50 (HTT mRNA [1]; [3]): 0.1 to 1 µM
- AC50 (HTT mRNA [1]; [4]): 1 to 10 µM
- AC50 (MYB mRNA; [5]): < 0.1 µM
- IC50 (MYB mRNA; [6]): < 0.1 µM
- IC50 (MYB mRNA; [7]): < 0.1 µM
- IC50 (HTT mRNA [2]): 0.1 to 1 µM
- IC50 (Target C mRNA): > 10 µM

Compound: CCNC1CCN(c2ccc(C(=O)Nc3cc(F)c4nc(C)cn4c3)n3nc(CO)cc23)C1 (stereo not drawn) [Compound 956]
- IC50 (SMN2 mRNA): < 0.1 µM
- AC50 (HTT mRNA [1]; [8]): 0.1 to 1 µM
- IC50 (HTT mRNA [1]; [9]): < 0.1 µM
- IC50 (MYB mRNA; [10]): < 0.1 µM
- IC50 (MYB mRNA; [7]): < 0.1 µM
- AC50 (MYB mRNA; [11]): < 0.1 µM
- IC50 (HTT mRNA [2]): < 0.1 µM
- IC50 (Target C mRNA): 0.1 to 1 µM

Compound: CCNC1CCN(c2ccc(C(=O)Nc3cc(F)c4nc(C)cn4c3)n3nc(CC)cc23)C1 (stereo not drawn) [Compound 959]
- IC50 (SMN2 mRNA): < 0.1 µM
- AC50 (HTT mRNA [1]; [8]): 0.1 to 1 µM
- IC50 (HTT mRNA [1]; [9]): 0.1 to 1 µM
- IC50 (MYB mRNA; [10]): < 0.1 µM
- IC50 (MYB mRNA; [7]): < 0.1 µM
- AC50 (MYB mRNA; [11]): < 0.1 µM
- IC50 (HTT mRNA [2]): 0.1 to 1 µM
- IC50 (Target C mRNA): 0.1 to 1 µM

Compound: Cn1cc2c(F)cc(NC(=O)c3ccc(N4CCNCC4)c4cn(C)nc34)cc2n1 [Compound 231]
- IC50 (SMN2 mRNA): > 10 µM
- IC50 (HTT mRNA [1]; [3]): > 10 µM
- AC50 (HTT mRNA [1]; [4]): > 10 µM
- AC50 (MYB mRNA; [5]): > 10 µM
- IC50 (MYB mRNA; [6]): > 10 µM
- IC50 (MYB mRNA; [7]): > 10 µM
- IC50 (HTT mRNA [2]): > 10 µM
- IC50 (Target C mRNA): > 10 µM
